From PubChem BioAssay (NCI)
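In this assay, cells in 96-well plates receive the compound at five concentrations for 48 hours. Endpoints are linearly interpolated between the surrounding concentrations. GI50: concentration for 50% inhibition of growth. TGI: concentration producing complete growth inhibition.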

Columns and labels:
Experiment in all cases: NCI tumour cell line growth inhibition, 48 h
HCT-15 colon = tested on: HCT-15 colon
K-562 leukemia = tested on: K-562 leukemia
KM12 colon = tested on: KM12 colon
SF-539 CNS = tested on: SF-539 CNS
BT-549 breast = tested on: BT-549 breast
M14 melanoma = tested on: M14 melanoma
SNB-75 CNS = tested on: SNB-75 CNS
786-0 renal = tested on: 786-0 renal
LXFL 529 NSCLC = tested on: LXFL 529 NSCLC
HOP-18 NSCLC = tested on: HOP-18 NSCLC

SMILES | GI50 (HCT-15 colon) [µM] | TGI (HCT-15 colon) [µM] | GI50 (K-562 leukemia) [µM] | TGI (K-562 leukemia) [µM] | GI50 (KM12 colon) [µM] | TGI (KM12 colon) [µM] | GI50 (SF-539 CNS) [µM] | TGI (SF-539 CNS) [µM] | GI50 (BT-549 breast) [µM] | TGI (BT-549 breast) [µM] | GI50 (M14 melanoma) [µM] | TGI (M14 melanoma) [µM] | GI50 (SNB-75 CNS) [µM] | TGI (SNB-75 CNS) [µM] | GI50 (786-0 renal) [µM] | TGI (786-0 renal) [µM] | TGI (LXFL 529 NSCLC) [µM] | TGI (HOP-18 NSCLC) [µM]
C=C1c2c(Cl)ccc(O)c2C(O)=C2C(=O)[C@]3(O)C(O)=C(C(N)=O)C(=O)[C@@H](N(C)C)[C@@H]3[C@@H](O)[C@H]12 | 1.44 | > 50 | 1.66 | > 50 | 1.49 | 6.17 | 1.32 | 4.61 | 1.07 | 3.24 | 1.32 | 5.79 | 0.845 | 3.61 | 1.17 | 5.22 |  | 
Clc1nc(Cl)c2ncn(Cc3ccc(Cn4cnc5c(Cl)nc(Cl)nc54)cc3)c2n1 | 6.24 | 19.3 | 0.661 | 14 | 12.5 | 31.2 | 5.04 | 20.7 |  | 18.9 | 11.2 | 27 |  | 37.6 | 1.6 | 11.2 |  | 
COc1cc2c(c(OC3OC(CO)C(O)C(O)C3O)c1)C(=O)CC(c1ccc(O)cc1)O2 (stereo not drawn) |  | > 100 |  | > 100 |  | > 100 |  | > 100 |  | > 100 |  | > 100 |  | > 100 |  | > 100 |  | 
CO[C@H]1CC(c2ccc[nH]2)=N[C@]12O[C@@H](C)C[C@@H]1CCCCCCCc3ccc([nH]3)[C@H]12 | 0.851 | 8.51 | 0.821 | > 24.2 | 0.933 | 6.15 | 1.01 | 9.26 | 1.21 | 9.31 | 0.898 | 3.35 | 0.825 | 2.79 | 1.25 | 6.53 |  | 
O=C1NC(=O)C2C1N(Cc1ccccc1)C(=O)N2Cc1ccccc1 (stereo not drawn) |  | > 100 |  | > 100 |  | > 100 |  | > 100 |  |  |  | > 100 |  | > 100 |  | > 100 | > 100 | 
O=C(NO)c1ccc(O)c(O)c1 |  | > 100 |  | 93.8 |  | > 100 |  | > 100 |  |  |  | > 100 |  | > 100 |  | > 100 | > 100 | > 100
COC(=O)C1=C(c2ccc3c(c2)OCO3)OC(c2cc(OC)c(OC)c(OC)c2)C1 (stereo not drawn) |  | 15.2 |  | > 100 |  |  |  | 87.8 |  |  |  | 84.1 |  | > 100 |  | > 100 | > 100 | > 100
N#Cc1cc(S(=O)(=O)Nc2nc3ccccc3s2)c(SCc2ccccc2)cc1Cl | 28.5 | 66.4 | 38.5 | > 100 | 19.8 | 46.7 | 17.4 | 34.8 | 20 | 48.9 | 18.9 | 37.1 | 26.2 | 63.3 | 19.3 | 39.9 |  | 
COc1ccc2nc(NC(=O)c3cccnc3Nc3cc(OC)c(OC)c(OC)c3)sc2c1 | 11.2 | 85.6 | 8.91 | > 100 | 4.51 | 19 | 2.8 | 11.2 | 11.6 | 28.2 | 10.5 | 29.6 | 2.89 | 12.8 | 5.6 | 19.7 |  | 
Cc1cccc2nc3cccc(C(=O)NCCN(C)C)c3nc12 |  | 2.19 |  | 10.9 |  | 77.3 |  | 1.21 |  |  |  | 2.36 |  | 3.04 |  | 14.6 |  | 84
C/C=C(\C)C(=O)N[C@H]1C(O)C[C@]2(C)C3CC[C@@]4(C)C(CC[C@@H]4C(C)N(C)C)C3CCC2C1O (stereo partly drawn) | 1.71 | 5.01 | 1.9 | 8.34 | 6.85 | 25.8 | 1.61 | 3.46 | 16.9 | 51.9 | 2.02 | 3.88 | 10.7 | 26.6 | 4.95 | 10.6 |  | 
CC(Br)C(=O)Nc1ccc(C(=O)O)c(O)c1 (stereo not drawn) |  | > 100 |  | > 100 |  | > 100 |  | > 100 |  | > 100 |  | > 100 |  | > 100 |  | > 100 |  | 
CCN(CC)CCOc1ccc(C(=O)/C=C\c2ccc(Cl)cc2Cl)cc1 | 2.15 | 5.16 | 2.41 | 9.13 | 1.92 | 4.16 | 4.05 | 16.4 | 5.83 | 18.2 | 2.17 | 5 | 2.53 | 12.1 | 6.44 | 20.3 |  | 
O=C(O)C1=C(C(=O)Nc2ccc(NC(=O)C3=C(C(=O)O)C4C=CC3C4)cc2)C2C=CC1C2 |  | > 100 |  | > 100 |  | > 100 |  | > 100 |  |  |  | > 100 |  | > 100 |  | > 100 | > 100 | > 100
COC(=O)CCC(=O)NC1C2CC3CC(C2)CC1C3 (stereo not drawn) |  | > 100 |  | > 100 |  | > 100 |  | > 100 |  |  |  | > 100 |  | > 95.4 |  | > 100 | > 100 | > 100
Cc1ccc(-c2nc(N3CCCNCC3)c3oc(-c4ccc(C)cc4)nc3n2)cc1 | 1.49 | 2.96 | 0.946 | 2.68 | 1.72 | 3.2 | 1.76 | 3.29 | 16.3 | 35 | 1.85 | 3.55 | 1.66 | 3.02 | 1.76 | 3.25 |  | 
COc1ccc(C2=CC(c3ccc(OC)c(OC)c3)c3c(c4ccccc4oc3=O)O2)cc1OC (stereo not drawn) | 1.58 | > 100 | 1.02 | > 100 | 1.25 | > 100 | 1.02 | 4.43 | 92.6 | > 100 | 1.27 | > 31.3 | 0.341 | 2.17 | 1.15 | 11.7 |  | 
CC1=CC(=O)N(c2c(C)cccc2Cl)C(C)N1 (stereo not drawn) |  | > 100 |  | > 100 |  | > 100 |  | > 100 |  |  |  | > 100 |  | > 100 |  | > 100 | > 100 | > 100
